The record followed here is PubChem BioAssay AID977614 (Broad Institute, 2014).

Active and inactive are the calls of the source.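 The calls were made as follows: active = parasite count per well reduced by over 3 SD from the mean, with host cell number above 80% of untreated; inactive = the rest.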

By AC50 is commonly meant the midpoint of the concentration-response curve, whichever way the signal moves.

The test deals with L. donovani amastigotes in THP-1 macrophages, DAPI imaging, 72 h. The test is described as follows: antileishmanial activity in infected macrophages – imaging, THP-1 host macrophages, single concentration (AID 977614).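 Also: signal is the parasite per host cell ratio from DAPI stained kinetoplasts and nuclei.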

For `COc1ccc(NC(=O)N2C[C@H]3[C@@H](c4ccccc42)[C@@H](CO)N3Cc2ccccn2)cc1`, the AC50 was > 10 µM (inactive).

As to `C[C@@H]1CN([C@H](C)CO)C(=O)CCCn2nncc2CO[C@@H]1CN(C)C(=O)Nc1cccc(Oc2ccccn2)c1`, the AC50 is > 10 µM (inactive).

Regarding `C[C@H]1CN([C@@H](C)CO)C(=O)CCCn2nncc2CO[C@H]1CN(C)Cc1ccc2cccnc2c1`, the AC50 is > 10 µM (inactive).

Take `CC(=O)N1[C@@H]2CN(C(=O)c3ccc(F)cc3)c3ccccc3[C@@H]2[C@@H]1CO`: the AC50 is > 10 µM (inactive).

For `C[C@H]1CN([C@@H](C)CO)C(=O)CCCn2cc(nn2)CO[C@@H]1CN(C)C(=O)NC1CCCCC1`, the AC50 is > 10 µM (inactive).

For `CC(C)NC(=O)N1[C@H](CO)[C@@H](c2ccccc2)[C@@H]1CN(C)C(=O)c1cccnc1`, the AC50 is > 10 µM (inactive).

For the compound `CC(=O)N1[C@H](CO)[C@@H](c2ccccc2)[C@@H]1CN(CC(C)C)C(=O)c1ccccn1`, the AC50 was > 10 µM (inactive).

As to `O=C(CC(F)(F)F)N1C[C@@H]2[C@H](c3ccccc31)[C@H](CO)N2C(=O)c1ccncc1`, the AC50 was > 10 µM (inactive).

For `COc1ccc(C(=O)N2C[C@@H]3[C@H](c4ccccc42)[C@H](CO)N3Cc2ccccc2Cl)cc1`, the AC50 is > 10 µM (inactive).

As for `O=S(=O)(c1ccccc1)N1[C@@H]2CNc3ccccc3[C@@H]2[C@@H]1CO`, the AC50 is > 10 µM (inactive).

With `O=C(Nc1ccccc1F)N1C[C@H]2[C@@H](c3ccccc31)[C@H](CO)N2C(=O)Cc1cccnc1`, the AC50 was > 10 µM (inactive).

For the compound `O=C(c1cccc(F)c1)N1C[C@@H]2[C@H](c3ccccc31)[C@H](CO)N2Cc1cocn1`, the AC50 is > 10 µM (inactive).

In the case of `COCC(=O)NC[C@@H]1[C@H](c2ccccc2)[C@H](CO)N1C(=O)c1ccccc1`, the AC50 was > 10 µM (inactive).

For the compound `CCN(C[C@@H]1[C@@H](c2ccccc2)[C@H](CO)N1S(C)(=O)=O)C(=O)C1CCCC1`, the AC50 is > 10 µM (inactive).

On to `CC(=O)N(Cc1cccc(F)c1)C[C@H]1[C@@H](c2ccccc2)[C@@H](CO)N1C(C)=O`, for which the AC50 is > 10 µM (inactive).

For `O=C(Nc1cccc(F)c1)N1C[C@H]2[C@@H](c3ccccc31)[C@H](CO)N2C(=O)Cc1ccccn1`, the AC50 is > 10 µM (inactive).

On to `CN(C)CC(=O)N1C[C@@H]2[C@H](c3ccccc31)[C@H](CO)N2C(=O)c1ccccn1`, for which the AC50 is > 10 µM (inactive).

On to `C[C@H]1CN([C@@H](C)CO)C(=O)CCCn2nncc2CO[C@H]1CN(C)C(=O)c1cc(-c2ccccc2)on1`, for which the AC50 is > 10 µM (inactive).

With `OC[C@@H]1[C@@H]2c3ccccc3NC[C@@H]2N1CC1CCOCC1`, the AC50 was > 10 µM (inactive).

`CN1C[C@H]2[C@@H](c3ccccc31)[C@H](CO)N2S(=O)(=O)c1ccccc1`: the AC50 was > 10 µM (inactive).

Turning to `C[C@H](CO)N1C[C@H](C)[C@H](CN(C)S(=O)(=O)c2ccc3c(c2)OCCCO3)OCc2cnnn2CCCC1=O`, the AC50 was > 10 µM (inactive).

Take `C[C@@H]1CN([C@H](C)CO)C(=O)CCCn2cc(nn2)CO[C@@H]1CN(C)C(=O)NC1CCCCC1`: the AC50 was > 10 µM (inactive).

For `CC(=O)N1[C@H](CO)[C@H](c2ccccc2)[C@H]1CN(C(=O)c1ccccc1F)C(C)C`, the AC50 is > 10 µM (inactive).

With `CNC[C@@H]1OCc2cnnn2CCCC(=O)N([C@@H](C)CO)C[C@H]1C`, the AC50 was > 10 µM (inactive).

Regarding `C[C@@H]1CN([C@H](C)CO)C(=O)CCCn2nncc2CO[C@H]1CN(C)C(=O)Oc1cccc2ccccc12`, the AC50 is > 10 µM (inactive).

In the case of `O=C(c1ccccn1)N1C[C@H]2[C@@H](c3ccccc31)[C@H](CO)N2C(=O)Nc1ccccc1Cl`, the AC50 is > 10 µM (inactive).

As for `COCCN(C[C@@H]1[C@@H](c2ccccc2)[C@H](CO)N1C(C)=O)C(=O)c1cccnc1`, the AC50 is > 10 µM (inactive).

Consider `COc1cccc(NC(=O)N2[C@@H](CO)[C@@H](c3ccccc3)[C@@H]2CNCC(C)C)c1`, for which the AC50 is > 10 µM (inactive).

Turning to `C[C@@H]1CN([C@H](C)CO)C(=O)CCCn2cc(nn2)CO[C@H]1CN(C)C(=O)c1ccc(N2CCN(C)CC2)cc1`, the AC50 was > 10 µM (inactive).

Turning to `C[C@H]1CN([C@@H](C)CO)C(=O)CCCn2nncc2CO[C@@H]1CN(C)Cc1ccccc1C(=O)O`, the AC50 is > 10 µM (inactive).

Consider `C[C@H](CO)N1C[C@H](C)[C@@H](CN(C)Cc2cccc3c2OCCCO3)OCc2cnnn2CCCC1=O`, for which the AC50 is > 10 µM (inactive).

With `C[C@@H]1CN([C@H](C)CO)C(=O)CCCn2nncc2CO[C@@H]1CN(C)Cc1cccc2c1OCCCO2`, the AC50 is > 10 µM (inactive).

Turning to `CCN(C[C@@H]1[C@@H](c2ccc(-c3cccnc3)cc2)[C@@H](CO)N1C(C)=O)C(C)=O`, the AC50 is > 10 µM (inactive).

With `C/C=C/c1ccc([C@@H]2[C@H](CO)N[C@H]2CN(CC)C(=O)CN2CCOCC2)cc1`, the AC50 was > 10 µM (inactive).

Take `O=C(Nc1ccc(Cl)cc1)N1C[C@H]2[C@@H](c3ccccc31)[C@@H](CO)N2CC1CCCCC1`: the AC50 is > 10 µM (inactive).

`COCC(=O)NC[C@@H]1[C@H](c2ccccc2)[C@@H](CO)N1C(=O)c1ccccc1`: the AC50 was > 10 µM (inactive).

With `C/C=C/c1ccc([C@H]2[C@@H](CN(C)C(=O)CC3CC3)N(C(=O)C3CC3)[C@H]2CO)cc1`, the AC50 was > 10 µM (inactive).

With `O=C(c1ccncc1)N1C[C@H]2[C@@H](c3ccccc31)[C@H](CO)N2Cc1ccccc1F`, the AC50 is > 10 µM (inactive).

`CN(C[C@H]1[C@H](c2ccccc2)[C@H](CO)N1Cc1ccccn1)S(C)(=O)=O`: the AC50 was > 10 µM (inactive).

On to `C/C=C/c1ccc([C@H]2[C@@H](CO)N(C(C)=O)[C@@H]2CN(CC)C(=O)CN(C)C)cc1`, for which the AC50 was > 10 µM (inactive).

Take `O=C(CC1CC1)N1[C@H](CO)[C@@H]2c3ccccc3N(S(=O)(=O)c3ccccc3F)C[C@@H]21`: the AC50 is > 10 µM (inactive).

Take `Cc1noc(C)c1NC(=O)N(C)C[C@H]1OCc2cnnn2CCCC(=O)N([C@@H](C)CO)C[C@H]1C`: the AC50 is > 10 µM (inactive).

Consider `CN(C[C@H]1N[C@@H](CO)[C@H]1c1ccc(-c2cccc(F)c2)cc1)C(=O)CC1CC1`, for which the AC50 is > 10 µM (inactive).

Take `C[C@H]1CN([C@@H](C)CO)C(=O)CCCn2cc(nn2)CO[C@H]1CN(C)S(=O)(=O)c1ccc(-n2cccn2)cc1`: the AC50 was > 10 µM (inactive).

For the compound `C[C@H]1CN([C@@H](C)CO)C(=O)CCCn2nncc2CO[C@H]1CN(C)C(=O)Nc1ccc2c(c1)OCCO2`, the AC50 was > 10 µM (inactive).

With `CCC(=O)N1[C@@H]2CN(S(=O)(=O)c3ccc(F)cc3)c3ccccc3[C@@H]2[C@@H]1CO`, the AC50 is > 10 µM (inactive).

For the compound `C[C@@H]1CN([C@H](C)CO)C(=O)CCCn2nncc2CO[C@H]1CN(C)C(=O)Nc1ccnc(N2CCOCC2)c1`, the AC50 is > 10 µM (inactive).

With `CCN(C[C@@H]1[C@@H](c2ccccc2)[C@H](CO)N1CC1CC1)C(=O)c1ccccn1`, the AC50 is > 10 µM (inactive).

`C[C@H]1CN([C@@H](C)CO)C(=O)CCCn2cc(nn2)CO[C@H]1CN(C)C(=O)NC1CCCCC1`: the AC50 is > 10 µM (inactive).

For `CCN(C[C@H]1[C@H](c2ccc(-c3cccnc3)cc2)[C@@H](CO)N1C(C)=O)C(C)=O`, the AC50 was > 10 µM (inactive).

As for `O=C(CC(F)(F)F)N1C[C@H]2[C@@H](c3ccccc31)[C@H](CO)N2Cc1cccnc1`, the AC50 is > 10 µM (inactive).

Take `CCC(=O)N1[C@H](CO)[C@@H]2c3ccccc3N(C(=O)Nc3ccc(Cl)cc3)C[C@@H]21`: the AC50 was > 10 µM (inactive).

Take `C/C=C/c1ccc([C@H]2[C@@H](CO)N(C(=O)CC)[C@@H]2CN(C(=O)C2CC2)C(C)C)cc1`: the AC50 was > 10 µM (inactive).

`C[C@@H]1CN([C@@H](C)CO)C(=O)CCCn2nncc2CO[C@@H]1CN(C)Cc1cccc2c1OCCCO2`: the AC50 is > 10 µM (inactive).

As for `CC(=O)N1[C@H](CO)[C@H](c2ccc(C3=CCCCC3)cc2)[C@@H]1CNC(=O)CN(C)C`, the AC50 is > 10 µM (inactive).

Regarding `CCN(C[C@H]1[C@@H](c2ccccc2)[C@H](CO)N1C(=O)COC)S(C)(=O)=O`, the AC50 is > 10 µM (inactive).

As to `CCc1csc(N2[C@H](CO)[C@H](c3ccccc3)[C@@H]2CN(C)C(=O)C2CCC2)n1`, the AC50 is > 10 µM (inactive).

For `COCC(=O)N(C[C@H]1N[C@H](CO)[C@@H]1c1ccc(-c2cncnc2)cc1)C(C)C`, the AC50 was > 10 µM (inactive).

On to `C[C@@H]1CN([C@@H](C)CO)C(=O)CCCn2cc(nn2)CO[C@@H]1CN(C)S(=O)(=O)c1cn(C)cn1`, for which the AC50 was > 10 µM (inactive).

Take `C[C@@H]1CN([C@@H](C)CO)C(=O)CCCn2nncc2CO[C@@H]1CN(C)Cc1ccc2cccnc2c1`: the AC50 was > 10 µM (inactive).

Regarding `C[C@@H]1CN([C@@H](C)CO)C(=O)CCCn2cc(nn2)CO[C@H]1CN(C)S(=O)(=O)c1ccc(-n2cccn2)cc1`, the AC50 was > 10 µM (inactive).

`COc1ccccc1S(=O)(=O)N(C)C[C@@H]1OCc2cn(nn2)CCCC(=O)N([C@H](C)CO)C[C@H]1C`: the AC50 was > 10 µM (inactive).

Turning to `CC(C)NC(=O)N1[C@@H](CO)[C@H](c2ccccc2)[C@@H]1CN(C)C(=O)c1cccnc1`, the AC50 is > 10 µM (inactive).

Turning to `CCN(C[C@H]1[C@H](c2ccccc2)[C@@H](CO)N1S(C)(=O)=O)C(=O)C1CCCC1`, the AC50 is > 10 µM (inactive).

Regarding `C/C=C/c1ccc([C@@H]2[C@@H](CNC(=O)C3CCC3)N(C(=O)NCCC)[C@H]2CO)cc1`, the AC50 is > 10 µM (inactive).

As to `C[C@H](CO)N1C[C@H](C)[C@H](CN(C)C(=O)c2ccc(N3CCN(C)CC3)cc2)OCc2cnnn2CCCC1=O`, the AC50 is > 10 µM (inactive).

On to `C[C@@H]1CN([C@H](C)CO)C(=O)CCCn2cc(nn2)CO[C@H]1CN(C)C(=O)Oc1ccc2ccccc2c1`, for which the AC50 is > 10 µM (inactive).

For the compound `CCCNC[C@H]1[C@@H](c2ccc(-c3cccc(C#N)c3)cc2)[C@@H](CO)N1C(C)=O`, the AC50 is > 10 µM (inactive).

For `CCCC#Cc1ccc([C@H]2[C@@H](CO)N(C(=O)NC(C)C)[C@H]2CNC(C)=O)cc1`, the AC50 is > 10 µM (inactive).
